Results published in article PMC11940505, “Antivirulence Properties of Kuraridin Against Methicillin-Resistant Staphylococcus aureus (MRSA)” (Biomedicines, 2025).

Molecular target: T1, Sortase A (SrtA) (Staphylococcus aureus, UniProt Q2FV99)
T1 construct: recombinant SrtA enzyme (BPS Bioscience)
Test: fluorescence cleavage assay of Abz-LPETG-K(Dnp)-NH2 with recombinant SrtA
Type: biochemical

T1 sequence (Q2FV99 whole entry): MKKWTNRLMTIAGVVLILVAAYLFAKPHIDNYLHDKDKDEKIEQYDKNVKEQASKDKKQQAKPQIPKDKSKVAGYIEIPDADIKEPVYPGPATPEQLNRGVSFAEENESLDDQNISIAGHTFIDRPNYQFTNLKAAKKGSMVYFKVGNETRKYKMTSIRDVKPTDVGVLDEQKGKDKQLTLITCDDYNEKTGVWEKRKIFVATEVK

Which “fluorescence cleavage assay of Abz-LPETG-K(Dnp)-NH2 with recombinant SrtA” value does the source give for C=C(C)[C@H](CC=C(C)C)Cc1c(O)cc(OC)c(C(=O)/C=C/c2ccc(O)cc2O)c1O [Kuraridin, (E)-1-[2,4-dihydroxy-6-methoxy-3-(5-methyl-2-prop-1-en-2-ylhex-4-enyl)phenyl]-3-(2,4-dihydroxyphenyl)prop-2-en-1-one] here?
Its value is “LogIC50 1.699 ± 0.055”.
